According to patent publication US20250059220A1, “SUBSTITUTED BENZOTHIOPHENE DERIVATIVES AND METHODS OF USE THEREOF” (Merck Sharp & Dohme LLC, priority 2021, published 2025):

How the values were obtained:
human PTPN2 (1-387) = human PTPN2 (1-387) (Homo sapiens (Human), UniProt P17706); assay: Human PTPN2 Biochemical Assay; conditions: DiFMUP substrate
How it was run: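 Human PTPN2 (1-387) preincubated 30 min at RT with compound (10-point 3-fold series) in Tris pH 7.4 buffer with 0.5 mM DTT, then DiFMUP substrate added for 1 h at RT. Fluorescence at ex 360/em 460 nm, normalised to no-enzyme and enzyme controls; EC50 from 4-parameter fit.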

human PTPN1 (1-435) = human PTPN1 (1-435) (Homo sapiens (Human), UniProt P18031); assay: Human PTPN1 Biochemical Assay; conditions: DiFMUP substrate, read-out: PTP1B IC50
How it was run: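 Read-out is DiFMUP hydrolysis fluorescence (360 nm excitation, 460 nm emission) after 1 h at room temperature, following 30 min enzyme–compound preincubation.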

Chain of human PTPN1 (1-435) (P18031 whole entry): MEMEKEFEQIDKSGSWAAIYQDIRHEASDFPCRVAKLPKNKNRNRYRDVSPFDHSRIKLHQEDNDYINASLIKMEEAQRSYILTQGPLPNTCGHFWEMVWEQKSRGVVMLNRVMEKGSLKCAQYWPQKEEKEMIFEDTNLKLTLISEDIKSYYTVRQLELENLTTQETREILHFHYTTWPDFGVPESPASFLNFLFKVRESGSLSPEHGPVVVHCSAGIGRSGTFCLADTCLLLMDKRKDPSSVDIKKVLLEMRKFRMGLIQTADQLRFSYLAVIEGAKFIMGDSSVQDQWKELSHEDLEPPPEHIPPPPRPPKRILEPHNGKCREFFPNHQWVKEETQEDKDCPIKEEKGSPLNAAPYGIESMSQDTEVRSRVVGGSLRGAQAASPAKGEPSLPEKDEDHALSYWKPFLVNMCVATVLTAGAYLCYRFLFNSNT
Chain of human PTPN2 (1-387) (P17706 other isoform, or with tags, fused parts or gaps): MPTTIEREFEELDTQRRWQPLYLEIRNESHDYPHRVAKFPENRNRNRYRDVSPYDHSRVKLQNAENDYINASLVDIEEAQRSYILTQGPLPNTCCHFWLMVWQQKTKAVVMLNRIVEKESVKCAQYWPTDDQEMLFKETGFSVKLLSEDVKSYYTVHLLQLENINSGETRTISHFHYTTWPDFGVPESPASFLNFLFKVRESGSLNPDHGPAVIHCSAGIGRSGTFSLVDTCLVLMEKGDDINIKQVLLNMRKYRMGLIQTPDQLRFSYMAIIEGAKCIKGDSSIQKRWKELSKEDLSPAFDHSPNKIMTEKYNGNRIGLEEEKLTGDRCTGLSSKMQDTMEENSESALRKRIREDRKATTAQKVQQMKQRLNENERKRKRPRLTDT

Compound: CS(=O)(=O)CCCOc1cc(C(N)=O)cc2cc(C(F)(F)P(=O)(O)O)sc12 [Compound 453, ammonium ((5-carbamoyl-7-(3-(methylsulfonyl)propoxy)benzo[b]thiophen-2-yl)difluoromethyl)phosphonate]
- IC50 (human PTPN2 (1-387)): 9580 nM
- IC50 (human PTPN1 (1-435)): 7860 nM

Compound: CS(=O)(=O)CCCOc1cc(C(N)=O)cc2c(C(F)F)c(C(F)(F)P(=O)(O)O)sc12 [Compound 454, ((5-carbamoyl-3-(difluoromethyl)-7-(3-(methylsulfonyl)propoxy)benzo[b]thiophen-2-yl)difluoromethyl)phosphonic acid]
- IC50 (human PTPN2 (1-387)): 24.5 nM
- IC50 (human PTPN1 (1-435)): 40.3 nM

Compound: N#Cc1c(C(F)(F)P(=O)(O)O)sc2c(OCCCS(N)(=O)=O)cc(-c3c[nH]nn3)cc12 [Compound 455, ((3-cyano-7-(3-sulfamoylpropoxy)-5-(1H-1,2,3-triazol-4-yl)benzo[b]thiophen-2-yl)difluoromethyl)phosphonic acid]
- IC50 (human PTPN2 (1-387)): 2.69 nM
- IC50 (human PTPN1 (1-435)): 3.6 nM

Compound: CC(C)(O)CCCOc1cc(C(N)=O)cc2c(C(F)(F)F)c(C(F)(F)P(=O)(O)O)sc12 [Compound 456, ((5-carbamoyl-7-((4-hydroxy-4-methylpentyl)oxy)-3-(trifluoromethyl)benzo[b]thiophen-2-yl)difluoromethyl)phosphonic acid]
- IC50 (human PTPN2 (1-387)): 14.1 nM
- IC50 (human PTPN1 (1-435)): 23.2 nM

Compound: N#Cc1c(C(F)(F)P(=O)(O)O)sc2c(OCCCS(N)(=O)=O)cc(-c3nc[nH]n3)cc12 [Compound 457, ((3-cyano-7-(3-sulfamoylpropoxy)-5-(1H-1,2,4-triazol-3-yl)benzo[b]thiophen-2-yl)difluoromethyl)phosphonic acid]
- IC50 (human PTPN2 (1-387)): 2.5 nM
- IC50 (human PTPN1 (1-435)): 2.5 nM

Compound: CNS(=O)(=O)c1cc(OCCCC(F)(F)F)c2sc(C(F)(F)P(=O)(O)O)c(Br)c2c1 [Compound 459, ((3-bromo-5-(N-methylsulfamoyl)-7-(4,4,4-trifluorobutoxy)benzo[b]thiophen-2-yl)difluoromethyl)phosphonic acid]
- IC50 (human PTPN2 (1-387)): 892 nM
- IC50 (human PTPN1 (1-435)): 616 nM

Compound: CS(=O)(=O)CCCOc1cc(-c2cc(=O)cc[nH]2)cc2c(Br)c(C(F)(F)P(=O)(O)O)sc12 [Compound 460, ((3-bromo-7-(3-(methylsulfonyl)propoxy)-5-(4-oxo-1,4-dihydropyridin-2-yl)benzo[b]thiophen-2-yl)difluoromethyl)phosphonic acid]
- IC50 (human PTPN2 (1-387)): 2.5 nM
- IC50 (human PTPN1 (1-435)): 2.5 nM

Compound: CS(=O)(=O)c1ccc(COc2cc(C(N)=O)cc3c(Br)c(C(F)(F)P(=O)(O)O)sc23)c(C#N)c1 [Compound 463, ((3-bromo-5-carbamoyl-7-((2-cyano-4-(methylsulfonyl)benzyl)oxy)benzo[b]thiophen-2-yl)difluoromethyl)phosphonic acid]
- IC50 (human PTPN2 (1-387)): 6.7 nM
- IC50 (human PTPN1 (1-435)): 14.8 nM

Compound: NC(=O)c1cc(OCC(F)CC(F)(F)F)c2sc(C(F)(F)P(=O)(O)O)c(Br)c2c1 (stereo not drawn) [Compound 464, ((3-bromo-5-carbamoyl-7-(2,4,4,4-tetrafluorobutoxy)benzo[b]thiophen-2-yl)difluoromethyl)phosphonic acid]
- IC50 (human PTPN2 (1-387)): 39.7 nM
- IC50 (human PTPN1 (1-435)): 42.6 nM
